In one assay the test system is PBMCs of normal subjects. The conditions noted are these: cited from earlier work.
For a further assay, the system named is CLL-PBMCs. Conditions: PBMCs of patients suffering from chronic lymphocytic leukaemia; cited from earlier work.
Assay [1] concerns Human peripheral blood mononuclear cells (PBMNCs). As to the kind of experiment: Inhibition of T cell proliferation: [3H]-thymidine incorporation in PBMNCs activated by anti-CD3 and anti-CD28. The format is cell-based. Conditions: PBMC, 72 h + 8 h [3H]-thymidine, mean of the three experiments. As for the experimental part:
Human peripheral blood mononuclear cells (PBMNCs) were separated from the blood of healthy donors using a centrifuging gradient on a Ficoll-Paque™ Plus (GE Healthcare Bio-Sciences AB code 17-1440-03, Uppsala). A mixture of 5.0 ml of blood and 5.0 ml of phosphate buffered saline (PBS Gibco 14190) was deposited on 10.0 ml of Ficoll-Paque in a 50 ml Blue max tube (Becton Dickinson 352070) and centrifuged with 900 g for 30 min. The band of PBMNCs was withdrawn, washed in PBS and then centrifuged with 900 g for 10 minutes. Finally, the PBMNCs were suspended (2.5×10^5 cells/ml) in an RPMI 1640 complete medium+Glutamax (Gibco 61870) additivated with 10% of FCS, the complement of which has been heat inactivated, and with penicillin-streptomycin (Gibco 15140).
The PBMNCs were cultured in flat-bottomed 96-well plates, in a proportion of 0.5×10^5 cells/well in 200 μl of RPMI 1640 complete medium. The cells were activated by two monoclonal antibodies, one of anti-CD3 specificity, 20 ng/ml (Pharmingen 555329), and the other of anti-CD28 specificity, 200 ng/ml (Pharmingen 555725), in the presence of PDE7 inhibitors at five different concentrations, 10 μM, 3.3 μM, 1.1 μM, 0.36 μM and 0.12 μM, or of cyclosporin A, which acts as positive control of the halting of proliferation. […] After incubating for an additional 8 hours, the PBMNCs were collected on a Tomtec cell collector (Wallac) using a glass fibre filter (Wallac 1450-421), and incorporation of the [^3H]-thymidine in the nucleus of the cells was measured using a Microbeta 1450-Trilux (Wallac). The inhibition of the proliferation, expressed as percentage, was calculated using the following equation: 100−(cpm mean value of the cells in the presence of the compound/cpm mean value of the cells in the absence of the compound)×100. […]
Background: Incorporation of labelled thymidine or its analogues reports DNA synthesis.

A further assay has as its target T1, Human PDE7 (Homo sapiens, UniProt Q13946).
T1 construct: Human PDE7 was partially purified from the HUT-78 cell line; endogenous in cells
As to the kind of experiment: PDE7 enzymatic assay (radioactive cAMP / 5′-AMP separation by TLC on PEI cellulose). The format is biochemical. The procedure:
The ability of the compounds of formula (I) to inhibit PDE7 is measured using an enzymatic assay based on the separation of radioactive cAMP (substrate of PDE7) from the radioactive 5′-AMP (product of the enzymatic reaction) by thin layer chromatography on polyethyleneimine (PEI) cellulose, after halting the enzymatic reaction. The 5′-AMP is extracted quantitatively from the PEI cellulose and its radioactivity is measured using a liquid scintillation counter.
The inhibitory activity of the compounds of formula (I) with regard to PDE7 is represented by the inhibition constant IC50, defined as the concentration of the compound (inhibitor) tested in the assay which makes it possible to reduce the enzymatic activity of PDE7 by 50%. The lower the IC50 values, the greater the inhibitory power of the compounds.
Human PDE7 was partially purified from the HUT-78 cell line by following a method analogous to that described by Bloom and Beavo (Proc. Natl. Acad. Sci. USA, (1996) 93, 14188-14192). The enzyme preparation obtained is stored at −80° C. in a buffer comprising 20 mM of Tris-HCl (pH 7.0), 5 mM of MgCl2, 4 mM of EDTA, 1 mM of dithiothreitol and 20% of glycerol. […] The Michaelis constant (Km) of PDE7 for cAMP, measured using the radiochemical assay described below, is 21 nM.
The compounds of formula (I) to be tested as PDE7 inhibitors are dissolved in DMSO at a concentration of 10 mM. These solutions are subsequently diluted in cascade in DMSO in order to obtain solutions with the desired concentrations. The latter are subsequently diluted to one-twentieth in the assay buffer to give 5% DMSO solutions. The latter are finally diluted to one-fifth in the enzymatic assay.
The assay is carried out in 1.5 ml Eppendorf tubes comprising 40 mM of Tris-HCl (pH 7.5), 15 mM of MgCl2, 1 mM of EGTA, 0.5 mg/ml of bovine serum albumin, […] of [^3H]-cAMP (corresponding to a cAMP concentration of between 15 and 25 nM), 10 μM of rolipram and PDE7 in a final volume of 100 μl. The assay is carried out in the absence (control sample) or in the presence (treated sample) of the compounds tested as PDE7 inhibitors. The final concentration of DMSO in the assay is 2%. The reaction is initiated by addition of enzyme and the samples are maintained at ambient temperature for 30 minutes. The enzymatic dilution is adjusted so as to obtain a degree of conversion of 10 to 15%. The enzymatic reaction is halted by immersion of the stoppered Eppendorf tubes in a water bath at 100° C. for 3 minutes. Blanks (reaction halted immediately after addition of the enzyme) are included in each experiment. The samples are subsequently centrifuged at 10 000×g for 1 minute and an aliquot portion of 10 μl of supernatant is deposited 2 cm from the bottom edge of a sheet of PEI cellulose on which 10 μg of cAMP and 10 μg of 5′-AMP have been deposited beforehand. In order to facilitate the migration and to make it easier to cut out the strips of PEI cellulose comprising the 5′-AMP, which take place subsequently, 18 migration lanes with a width of 1 cm are delimited per plate by scraping the cellulose with a spatula over a width of 1 mm. The plates are developed over their entire length with a 0.30 M solution of LiCl in water by ascending chromatography. The 5′-AMP (Rf=0.20) and the cAMP (Rf=0.47) are visualized under UV light at 254 nm. The strips of PEI cellulose comprising the 5′-AMP are cut out and the nucleotide is quantitatively extracted in counting flasks with 2 ml of a solution which is 16M in formic acid and 2M in ammonium formate in water (rotary stirrer for 15 min). After addition of 10 ml of scintillation liquid (OptiPhase HiSafe 3 from Perkin-Elmer/Wallac), the radioactivity is counted using a liquid scintillation counter (model 1414, Perkin-Elmer/Wallac). Each assay is carried out in duplicate. […]

In a further assay the test system is PDE8. The assay is described as follows: PDE8 enzymatic assay equivalent to that described for PDE7. The format is biochemical.
The mark [2] stands for this setting: human PDE7 partially purified from HUT-78 cells, 10 μM rolipram present, read-out: IC50 (inhibition of PDE7).
Where [3] appears, read: table comparing PDE7 and PDE8, read-out: IC50 PDE7.

Read-outs that look alike come from different tables or passages of the source.

T1 sequence (Q13946 whole entry): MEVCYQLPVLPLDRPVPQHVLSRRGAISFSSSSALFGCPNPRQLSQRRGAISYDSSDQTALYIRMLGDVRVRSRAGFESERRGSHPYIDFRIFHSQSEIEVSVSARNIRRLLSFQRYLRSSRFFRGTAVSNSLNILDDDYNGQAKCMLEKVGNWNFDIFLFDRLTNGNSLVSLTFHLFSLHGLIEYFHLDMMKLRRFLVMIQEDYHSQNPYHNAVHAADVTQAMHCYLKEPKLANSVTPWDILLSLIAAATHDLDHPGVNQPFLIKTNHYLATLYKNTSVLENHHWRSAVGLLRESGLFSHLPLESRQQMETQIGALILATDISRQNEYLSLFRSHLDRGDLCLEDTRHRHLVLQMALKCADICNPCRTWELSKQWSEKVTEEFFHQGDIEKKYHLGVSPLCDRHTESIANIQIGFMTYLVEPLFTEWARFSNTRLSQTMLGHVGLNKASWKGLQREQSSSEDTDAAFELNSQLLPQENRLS

On to `Cc1ccc([N+](=O)[O-])cc1S(=O)(=O)N(C)C` [BRL-50481], for which the “effect on PBMCs of normal subjects” value in the assay on PBMCs of normal subjects was “without effect”. Moreover, in the assay with CLL-PBMCs, the “apoptosis of CLL-PBMCs” value was “induces in a dose-dependent way the apoptosis”.
Broadly, the IC50 is the concentration needed to halve the response being measured. Consider `COc1ccc(Cn2c(=O)c3cc(OC(C)C#N)ccc3n(C3CCN(C=O)CC3)c2=O)cc1OC` (stereo not drawn) [No. 1, 2-{[3-(3,4-dimethoxybenzyl)-1-(1-formylpiperidin-4-yl)-2,4-dioxo-1,2,3,4-tetrahydroquinazolin-6-yl]oxy}propanenitrile], for which the half-maximal inhibitory concentration (IC50) in assay [1] was found to be 400 nM.
In the case of `COc1ccc(Cn2c(=O)c3cc(OC(CF)CF)ccc3n(C3CCN(C=O)CC3)c2=O)cc1OC` [No. 11, 4-[3-(3,4-dimethoxybenzyl)-6-[2-fluoro-1-(fluoromethyl)ethoxy]-2,4-dioxo-3,4-dihydroquinazolin-1(2H)-yl]piperidine-1-carbaldehyde], the IC50 at Human PDE7 (setting [2]) worked out at 39 nM; with PDE8 it was 140 nM; in assay [1] it was 900 nM.
Regarding `COc1ccc(Cn2c(=O)c3cc(OCC(F)F)ccc3n(C3CCN(C=O)CC3)c2=O)cc1OC` [No. 16, 4-[6-(2,2-difluoroethoxy)-3-(3,4-dimethoxybenzyl)-2,4-dioxo-3,4-dihydroquinazolin-1(2H)-yl]piperidine-1-carbaldehyde], the IC50 at Human PDE7 (setting [2]) is 15 nM; in assay [1], 1300 nM.
In the case of `COc1ccc(Cn2c(=O)c3cc(OCCO)ccc3n(C3CCN(C=O)CC3)c2=O)cc1OC` [No. 72, 4-[3-(3,4-dimethoxybenzyl)-6-(2-hydroxyethoxy)-2,4-dioxo-3,4-dihydroquinazolin-1(2H)-yl]piperidine-1-carbaldehyde], the IC50 at Human PDE7 (setting [2]) is 89 nM.
The same measure, in the same setting: next, `COc1ccc(Cn2c(=O)c3cc(CNC(C)=O)ccc3n(C3CCN(C=O)C3)c2=O)cc1OC` (stereo not drawn) [No. 77, N-{[3-(3,4-dimethoxybenzyl)-1-(1-formylpyrrolidin-3-yl)-2,4-dioxo-1,2,3,4-tetrahydroquinazolin-6-yl]methyl}acetamide]: 820 nM.
Regarding `COc1ccc(Cn2c(=O)c3c(Cl)cc(Cl)cc3n(C3CCN(C=O)CC3)c2=O)cc1OC` [No. 97, 4-[5,7-dichloro-3-(3,4-dimethoxybenzyl)-2,4-dioxo-3,4-dihydroquinazolin-1(2H)-yl]piperidine-1-carbaldehyde], the IC50 at Human PDE7 (setting [2]) came out at 61 nM.
With `COc1ccc(Cn2c(=O)c3cc(OC(F)F)ccc3n(C3CCN(C=O)CC3)c2=O)cc1OC` [No. 111, 4-[6-(difluoromethoxy)-3-(3,4-dimethoxybenzyl)-2,4-dioxo-3,4-dihydroquinazolin-1(2H)-yl]piperidine-1-carbaldehyde], the IC50 on Human PDE7 (setting [2]) was found to be 6.7 nM.
On to `COc1cc(Cn2c(=O)c3cc(OC(CF)CF)ccc3n(C3CCN(C=O)CC3)c2=O)ccc1OCC(=O)N1CCCCC1` [No. 251, 4-{6-[2-fluoro-1-(fluoromethyl)ethoxy]-3-[3-methoxy-4-(2-oxo-2-(piperidin-1-yl)ethoxy)benzyl]-2,4-dioxo-3,4-dihydroquinazolin-1(2H)-yl}piperidine-1-carbaldehyde], for which the IC50 on Human PDE7 (setting [3]) is 46 nM.
Take `N#Cc1cc(Cn2c(=O)c3cc(OC(CF)CF)ccc3n(C3CCN(C=O)CC3)c2=O)ccc1-c1ccccc1` [No. 294, 4-({6-[2-fluoro-1-(fluoromethyl)ethoxy]-1-(1-formylpiperidin-4-yl)-2,4-dioxo-1,4-dihydroquinazolin-3(2H)-yl}methyl)biphenyl-2-carbonitrile]: the IC50 on Human PDE7 (setting [3]) is 37 nM; with PDE8 it was 15 nM.

The values are drawn from patent US8242126B2, “Quinazolinedione derivatives, preparation thereof and therapeutic uses thereof” (Sanofi, priority 2007, dated 2012).
